# Test results published in the supplement of paper PMC10307832.
# Assays:
# Assay in all cases: relative viability (nuclei count vs DMSO), 5 days (fraction); higher = more cells survive
# Carfilzomib + Decitabine = compound: CC(C)C[C@H](NC(=O)[C@H](CCc1ccccc1)NC(=O)CN1CCOCC1)C(=O)N[C@@H](Cc1ccccc1)C(=O)N[C@@H](CC(C)C)C(=O)[C@@]1(C)CO1 [Carfilzomib] + Nc1ncn([C@H]2C[C@H](O)[C@@H](CO)O2)c(=O)n1 [Decitabine] (partner 2 µM)
# How it was run: (§1)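 Lung cancer cell lines were seeded in 1536-well plates and dosed by pin tool the next day, with either a single drug or a fixed anchor-drug dose combined with five library-drug doses (not always all listed) spaced in √10 steps. Five days later, one step fixed the cells and stained their nuclei (final 0.05% Triton X-100, 1% formaldehyde, 1 ug/ml Hoechst), and nuclei were counted on 4× images. Relative viability is the nuclei count in treated wells divided by the count in vehicle wells, and each value is the median of duplicate plates.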
# Carfilzomib + Linsitinib = compound: CC(C)C[C@H](NC(=O)[C@H](CCc1ccccc1)NC(=O)CN1CCOCC1)C(=O)N[C@@H](Cc1ccccc1)C(=O)N[C@@H](CC(C)C)C(=O)[C@@]1(C)CO1 [Carfilzomib] + C[C@]1(O)C[C@@H](c2nc(-c3ccc4ccc(-c5ccccc5)nc4c3)c3c(N)nccn32)C1 [Linsitinib] (partner 1 µM)
# How it was run: as §1
# Olaparib + Navitoclax = compound: O=C(c1cc(Cc2n[nH]c(=O)c3ccccc23)ccc1F)N1CCN(C(=O)C2CC2)CC1 [Olaparib] + CC1(C)CCC(c2ccc(Cl)cc2)=C(CN2CCN(c3ccc(C(=O)NS(=O)(=O)c4ccc(N[C@H](CCN5CCOCC5)CSc5ccccc5)c(S(=O)(=O)C(F)(F)F)c4)cc3)CC2)C1 [Navitoclax] (partner 0.5 µM)
# How it was run: as §1
# Olaparib + Vorinostat = compound: O=C(c1cc(Cc2n[nH]c(=O)c3ccccc23)ccc1F)N1CCN(C(=O)C2CC2)CC1 [Olaparib] + O=C(CCCCCCC(=O)Nc1ccccc1)NO [Vorinostat] (partner 1 µM)
# How it was run: as §1
Cell Line,relative viability (Carfilzomib + Decitabine; first compound 0.001 µM),relative viability (Carfilzomib + Decitabine; first compound 0.003162 µM),relative viability (Carfilzomib + Decitabine; first compound 0.01 µM),relative viability (Carfilzomib + Decitabine; first compound 0.03162 µM),relative viability (Carfilzomib + Decitabine; first compound 0.1 µM),relative viability (Carfilzomib + Linsitinib; first compound 0.001 µM),relative viability (Carfilzomib + Linsitinib; first compound 0.003162 µM),relative viability (Carfilzomib + Linsitinib; first compound 0.01 µM),relative viability (Carfilzomib + Linsitinib; first compound 0.03162 µM),relative viability (Carfilzomib + Linsitinib; first compound 0.1 µM),relative viability (Olaparib + Navitoclax; first compound 0.08 µM),relative viability (Olaparib + Navitoclax; first compound 0.253 µM),relative viability (Olaparib + Navitoclax; first compound 2.53 µM),relative viability (Olaparib + Navitoclax; first compound 8 µM),relative viability (Olaparib + Vorinostat; first compound 0.08 µM),relative viability (Olaparib + Vorinostat; first compound 0.253 µM),relative viability (Olaparib + Vorinostat; first compound 2.53 µM),relative viability (Olaparib + Vorinostat; first compound 8 µM)
201T,0.818,0.901,0.798,0.873,0.795,0.992,1.07,1.1,1.09,1.02,1.18,1.2,1.19,1.15,1.07,0.912,0.954,0.947
A549,0.167,0.292,0.109,0.254,0.0302,0.478,0.756,0.546,0.231,0.0396,1.33,0.991,0.81,0.597,–,–,–,–
A-427,0.587,0.565,0.591,0.527,0.178,1.12,1.11,1.11,1.01,0.119,0.946,0.93,0.526,0.554,0.911,0.863,0.871,0.76
ABC-1,1.24,1.34,0.539,0.274,0.285,0.837,0.665,0.527,0.235,0.242,–,–,–,–,1.13,–,1.08,1.07
BEN,0.603,0.861,0.643,0.577,0.26,0.968,1.21,0.965,0.865,0.392,0.0771,0.0609,0.0668,0.0792,0.625,0.606,0.582,0.566
CAL-12T,–,–,–,–,–,0.836,0.923,0.876,0.57,0.112,1.35,1.19,1.41,1.08,1.15,0.663,0.917,0.687
COR-L23,0.383,0.443,0.386,0.0979,0.0901,0.939,1.05,0.867,0.0469,0.0604,1.12,0.877,0.713,0.44,0.508,0.43,0.228,0.239
COR-L 105,0.621,0.752,0.751,0.466,0.34,0.937,1.05,0.879,0.297,0.249,0.781,0.822,0.574,0.48,0.782,0.717,0.781,0.79
Calu-6,–,–,–,–,–,0.941,1.15,0.934,0.202,0.08,0.859,0.741,0.764,0.506,–,–,–,–
ChaGo-K-1,0.476,0.55,0.494,0.322,0.174,–,–,–,–,–,1.44,0.989,0.953,0.848,0.815,0.665,0.63,0.416
EBC-1,–,–,–,–,–,0.87,0.989,0.735,0.0736,0.0886,0.46,0.403,0.44,0.318,–,–,–,–
EKVX,0.371,0.36,0.335,–,0.128,0.927,1.2,1.08,1.01,0.33,1.1,0.876,0.97,0.944,0.667,0.679,0.776,0.646
EMC-BAC-2,1,1.02,0.954,0.911,0.296,0.78,0.786,0.844,0.836,0.401,1.37,1.1,0.999,1.01,0.584,0.405,0.703,0.446
EPLC-272H,0.353,0.391,0.379,0.174,0.0719,1.04,1.32,1.16,0.193,0.0783,1.28,1.1,1.16,0.995,0.513,0.386,0.472,0.4
H3255,0.645,0.704,0.684,–,0.185,0.942,1.06,0.995,0.739,0.373,0.53,0.426,0.655,0.437,0.859,0.722,0.904,0.757
HARA,0.669,0.747,0.704,0.192,0.119,0.89,1.03,1.07,0.0722,0.0537,1.14,1.08,1.04,0.99,0.45,0.472,0.553,0.507
HCC-15,0.606,0.725,0.637,0.424,0.127,0.847,0.958,0.937,0.765,0.168,0.751,0.657,0.719,0.643,0.956,0.819,0.83,0.687
HCC-44,0.939,0.893,0.917,0.973,0.639,0.592,0.75,0.673,0.487,0.174,0.913,0.941,0.934,0.933,1.12,1.06,1.22,1.16
HCC-78,0.622,0.766,0.672,0.554,0.302,0.554,0.585,0.545,0.385,0.214,0.977,0.738,0.819,0.572,0.443,0.429,0.377,0.557
HCC-366,0.32,0.412,0.352,0.447,0.086,0.657,0.666,0.611,0.557,0.0209,1.08,0.985,0.827,0.492,0.352,0.273,0.191,0.101
